Experimental data from patent US11207419B2, “Cadherin-17 specific antibodies and cytotoxic cells for cancer treatment” (ARBELE LIMITED, priority 2016, dated 2021).

Columns and labels:
[1] = test system: PLC/PRF/5 (PLC) cells; assay: In vitro cell proliferation MTT assay, PLC cells; assay type: cell-based, human; conditions: for growth inhibition: cultured PLC cells, treatment for 2 days, MTT
Experimental: (§1) A pre-determined number of 97L and PLC cells was seeded onto 96-well culture plates for 1 day. 150 ug/ml mouse IgG (Sigma-Aldrich, St Louis, Mo., USA) as a control for Lic5. After treatment, the proliferation of treated cells was measured using Cell Proliferation Kit I (Roche, Indianapolis, Ind., USA) and as described. In brief, MTT reagent was incubated with the treated cells for 4 hours. Colorimetric signals were then measured after addition of 10% SDS. Independent cell proliferation MTT assays were performed at least twice for result confirmation.
(§2) Before treating orthotopic tumor-bearing mice with the purified Lic5, the anti-tumor effect of Lic5 alone or combined with cisplatin or epirubicin in cultured HCC cell lines in vitro was examined using cell proliferation MTT assay (FIG. 31(A)).

[2] = test system: MHCC97-L (97L) cells; assay: In vitro cell proliferation MTT assay, 97L cells; assay type: cell-based, human; conditions: cultured 97L cells; for growth inhibition: treatment for 2 days, MTT
Experimental: as §1, §2

[3] = test system: 97L orthotopic liver tumors; assay: Animal survival study, orthotopic liver tumors; assay type: in vivo, nude mice; conditions: for animal survival rate: 8 mg/kg Lic5, 1 mg/kg epirubicin, intraperitoneal 3 times/week for 3 weeks, monitored till 6 weeks after treatment
Experimental: Orthotopic liver tumors were established as above using 97L cells. Orthotopic tumor-bearing mice received the following treatments intraperitoneally 3 times/week for 3 weeks (11-15 mice in each group): (1) 8 mg/kg Lic5; (2) 1 mg/kg cisplatin; (3) 1 mg/kg epirubicin; (4) combined treatment of Lic5 and cisplatin; (5) combined treatment of Lic5 and epirubicin; (6) 8 mg/kg mouse IgG as Lic5 control. Animal survival was continuously monitored till 6 weeks after treatment.
Statistical analyses were performed using SPSS version 19 (SPSS Inc., Chicago, Ill., USA). Data presented in bar chart are expressed as mean ±SD/SEM. Student's t-test was used to calculate the significance of the difference between treatment groups and control group in both cell proliferation MTT assay and animal tumor xenograft experiments. Kaplan-Meier method was employed for survival analyses, while the differences in survival were calculated using log-rank test. A p-value of less than 0.05 was considered statistically significant.

[4] = test system: luciferase-labelled 97L orthotopic liver tumors; assay: Orthotopic tumor xenograft model, tumor growth by live imaging; assay type: in vivo, nude mice; conditions: net photon count relative to IgG control 3 weeks after treatment; 6 mg/kg Lic5, 1 mg/kg drug, intraperitoneal 3 times/week for 3 weeks
Experimental: Animals were housed in individually ventilated cages under a 12-hour light/12-hour dark cycle and with free access to autoclaved water and chow. […] To allow in vivo viewing of the growing orthotopic liver tumors, previously established luciferase-labelled 97L cell line was used. 5×10^6 luciferase-labeled 97L cells were injected subcutaneously into nude mice to allow the growth of the subcutaneous tumors. These subcutaneous tumors were harvested when their sizes reached 200-300 mm3 and used as tumor seeds to establish orthotopic liver tumors in a separate group of nude mice following the standard procedure. […] Every week after treatment, orthotopic tumor growth and metastasis were monitored by live imaging in an IVIS 100 In Vivo Imaging System (Perkin Elmer, Waltham, Mass., USA) after intraperitoneal injection of 150 mg/kg potassium luciferin (Gold Biotechnology, St Louis, Mo., USA). For each measurement, a net photon count was obtained for each tumor. At the end of the experiment, orthotopic tumors were collected and subjected to formalin fixation and paraffin embedding.
The data shown are net photon count relative to the control IgG group obtained 3 weeks after treatment. […] Bars represent mean+SEM.

[5] = target: T1, GPC3 (Homo sapiens, UniProt P51654); conditions: phase I study; cited from earlier work
T1 construct: host or cells: HCC patients

[6] = test system: Oum1 human gastric cancer cells; assay: Internalization by confocal microscopy; assay type: cell-based; conditions: Lic5-FITC, over 30 mins at 37° C.
Experimental: (§3) FIG. 18 presents photographs showing the internalization of Lic5 into human gastric cancer cells as candidate for antibody drug conjugate; (a) photographs showing the staining of DAPI (blue) and Lic5-FITC (green) at indicated times; (b) photographs showing the merged staining of DAPI (blue) and Lic5-FITC (green) at indicated times; Lic5-FITC (green) internalization in Oum1 human gastric cancer cells over 30 mins at 37° C. was determined by confocal microscopy; nucleus was stained with DAPI.
as §3, with “In another aspect, the” for “FIG. 18 presents photographs showing the”, “cells is indicative of a” for “cells as”, “drug conjugate as shown in FIG. 18;” for “drug conjugate;”

[7] = test system: tumor cells of HCC and GC; assay: Binding of mAbs to tumor cells; assay type: cell-based
Description: Tumor antigens derived from clinical samples were selected for the antibodies with specificity directed against the tumor-restricted CDH17 epitopes. […] By lowering and/or varying the antibody affinity (through computational modeling), CDH17-CAR-T cells will have enhanced differential binding to the tumor cell surface.

[8] = target: T2, CDH17 (Homo sapiens, UniProt Q12864); assay: Immunoreactivity by western blot and immunohistochemistry; assay type: binding; conditions: western blot on 97L cell lysate, immunohistochemistry on human HCC tissue
T2 construct: A single band of about 120 kDa corresponding to the apparent molecular weight of CDH17 was detected in CDH17-expressing 97L cells; endogenous in cells; host or cells: 97L cell lysate (western blot); paraffin-embedded human HCC tissue (immunohistochemistry)
Experimental: An in-house hybridoma cell line secreting Lic5 was generated as described. Hybridoma cells were maintained in DMEM supplemented with 10% FBS and 100 units/ml penicillin and streptomycin. To collect Lic5, hybridoma cells were cultured in serum-free hybridoma-SFM (Life Technologies) for 6 days. The cultured supernatant was collected and purified using Protein G column (Life Technologies). The concentration of the purified Lic5 was estimated using RC DC Protein Assay (Bio-Rad, Hercules, Calif., USA). The purity of Lic5 was assessed by sodium dodecyl sulfate-polyacrylamide gel electrophoresis (SDS-PAGE) under reducing condition, followed by Coomassie Blue staining. Immunoreactivity and specificity of Lic5 were confirmed by western blot using 97L cell lysate and by immunohistochemistry using paraffin-embedded human HCC tissue. […]
Immunohistochemistry was performed on paraffin-embedded orthotopic tumor xenografts and human HCC specimen as described. […] Signals were detected using EnVision+System-HRP Labelled Polymer Anti-mouse (Dako, Carpinteria, Calif., USA) and visualized using Liquid DAB+Substrate Chromogen System (Dako). […]
A single band of about 120 kDa corresponding to the apparent molecular weight of CDH17 was detected in CDH17-expressing 97L cells when Lic5 was used as a primary antibody for western blot (FIG. 30(B)). […]

[9] = 2 days, compared to mouse IgG-treated cells

N.N.[Cl][Pt][Cl] [cisplatin]
growth inhibition [1]: 37.6%
growth inhibition [2]: 31.6%
difference in survival compared to control group ([3]; log-rank test versus mouse IgG control): did not reach any statistically significant values
xenograft growth inhibition [4]: 48.6%

COc1cccc2c1C(=O)c1c(O)c3c(c(O)c1C2=O)C[C@@](O)(C(=O)CO)C[C@@H]3O[C@H]1C[C@H](N)[C@@H](O)[C@H](C)O1 [epirubicin]
growth inhibition [1]: 8.1%
growth inhibition [2]: 21.9%
animal survival rate [3]: 25%
xenograft growth inhibition [4]: 37.9%

GC33: anti-GPC3 mAb developed by Chugai
clinical response [5]: no partial or complete response

B1: Lic5: in-house mouse monoclonal antibody against CDH17, from hybridoma; VL SEQ ID NO. 29, VH SEQ ID NO. 30 (antibody, V domains shown)
VH: EVQLEESGGGLVKPGGSLKLPCAASGSSFSDFYMYWVRQTPEKRLEWVASISFDGTYTYYTDRVKGRFTISRDNAKNNLYLQMSSLKSEDTAMYYCARDRPAWFPYWGQGTLVTVSAA
VL: DIVLTQTTLSLNVSLGDQASISCRSSQSIVHSNGNTYLEWYLQRPGQSPKLLIYKVSNRFSGVPDRFSGSGSGTDFTLKISRVEAEDLGVYYCFQGSHVPLTFGAGTKLELKRA
notes: in-house mouse monoclonal antibody against CDH17, from hybridoma; 30
growth of cultured cells, single treatment [1, 9]: inhibited the growth
growth of cultured cells, single treatment [2, 9]: inhibited the growth
animal survival rate [3]: 63.6%
internalization into cells [6]: internalization
binding to tumor cells [7]: bind tumor cells of HCC and GC only
immunoreactivity against CDH17 [8]: high immunoreactivity against CDH17

B2: Lic3: mouse monoclonal antibody against CDH17, produced using recombinant ectodomain 1-2 of CDH17 as immunogen (antibody, V domains shown)
VH: EVQLVESGGGLVKPGGSLKLSCAASGFSFSDYYMYWVRQAPEKRLEWVASISFDGTYTYYTDRVKGRFTISRDNAKNNLYLQMSSLKSEDTAMYYCARDRPAWFPYWGQGTLVTVSA
VL: DVLMTQIPLSLTVSLGDQASISCRSSQSIVHSNGNTYLEWYLQRPGQSPKLLIYKVSNRFSGVPDRFSGSGSGTDFTLKISRVEAEDLGVYYCFQGSHVPLTFGAGTKLELK
modifications: Lic3 VH; Lic3 VL
notes: mouse monoclonal antibody against CDH17, produced using recombinant ectodomain 1-2 of CDH17 as immunogen
binding to tumor cells [7]: bind tumor cells of HCC and GC only
